The text below walks through data of patent US20250268928A1, “USE OF BACTERIORUBERINS AND GLYCOSYL DERIVATIVES THEREOF TO PREVENT AND TREAT DISEASES INVOLVING DYSREGULATED PROTEIN AGGREGATION, SUCH AS NEURODEGENERATIVE DISEASES” (NAOS INSTITUTE OF LIFE SCIENCE, priority 2020, published 2025).

In experiment [1] the target is T1, Bovine alkaline phosphatase (AP) (Bos taurus, UniProt P19111).
T1 construct: purchased Sigma P0114
Briefly: AP-heat test (protection of alkaline phosphatase against heat denaturing, chaperone effect). The class given is biochemical. Particulars: 55° C. for 1 hour; all test concentrations (20 μM, 10 μM, 5 μM, 2.5 μM, 1.25 μM); FIG. 2. The source says:
The aim of this study was to compare the protein protection capacities of the various components of an extract of carotenoids of the actinobacterium A. agilis separated by chromatography and HPLC. More specifically, we tested all the major fractions to assess their ability to protect the enzyme alkaline phosphatase: • against denaturing via their effect of protecting proteins from denaturing (AP-heat test) (chaperone effect) • against oxidation (APox test) (Protective effect against oxidative stress).
This test is derived from a modification of the APox test for measuring the protection potential of proteins not just against oxidative stress, but against denaturing (heat stress). In fact, under the effect of heat, proteins are denatured and enzymes lose their activity. […]
• Bovine alkaline phosphatase (AP) (Sigma P0114) • Liquid substrate of alkaline phosphatase (Sigma P7998) • Heating block • Flat-bottomed 96-well plate • Plate reader at 405 nm […]
Read OD at 405 nm for 20 min at 37° C.
The protective power of a “molecule X” against denaturing (PPX) is calculated by taking the ratio of the activity of alkaline phosphatase (PA) at 55° C. […]
The activity of the enzyme for each condition is calculated by taking the mean of the optical density values measured at 405 nm for the replicates, from which values the mean value of what are known as the “blank” wells (reagents alone) is subtracted, i.e.: […]

For experiment [2], the target named is T1, Bovine alkaline phosphatase (AP). Put plainly: APox test (protection of alkaline phosphatase against oxidative stress). The class given is biochemical. Particulars: hydrogen peroxide/FeO4S, 15 min at 37° C.; all test concentrations (20 μM to 1.25 μM); FIG. 3. The source says:
The aim of this study was to compare the protein protection capacities of the various components of an extract of carotenoids of the actinobacterium A. agilis separated by chromatography and HPLC. More specifically, we tested all the major fractions to assess their ability to protect the enzyme alkaline phosphatase: • against denaturing via their effect of protecting proteins from denaturing (AP-heat test) (chaperone effect) • against oxidation (APox test) (Protective effect against oxidative stress). This test is described in patent application FR 3002544 A1 and measures the ability of a substance to protect the enzyme alkaline phosphatase from oxidative stress. • Bovine alkaline phosphatase (AP) (Sigma P0114) • Liquid substrate for AP (Sigma P7998) • 30% hydrogen peroxide • FeO4S solution (30 mg in 1 mL H2O) • Flat-bottomed 96-well plate • Plate reader at 405 nm The Following were Deposited in Each Well: • 10 μL of AP diluted to 10^−5 in 10^−2M MgSO4. • 4 μL of test molecule, solvent (negative control) or H2O (positive control)+6 μL of H2O • 30 μL of a hydrogen peroxide solution (from a stock solution composed of 940 μL H2O+40 μL 30% H2O2+20 μL 10^−2 FeO4S) or 30 μL of H2O (positive control) • Allow to incubate for 15 min at 37° C. • Add 50 μL of liquid substrate. • Read OD at 405 nm for 20 min at 37° C. […]

In another experiment the test system is Murine cortical neurons. Briefly: Neural network integrity of cortical neurons damaged by glutamate (MAP-2 immunolabeling). Particulars: 48 hours after, FIG. 4. It counts as cell-based. The method, then:
(§1) Murine cortical neurons were cultured as described by Callizot et al., 2013. The cells were mechanically dissociated by three forced passages through the tip of a 10 mL pipette. The cells were then centrifuged at 515×g for 10 minutes at 4° C. The supernatant was removed and the pellet was taken up in a defined culture medium constituted by Neurobasal medium with a 2% solution of B27 supplement, 2 mmol/litre of L-glutamine, 2% of PS solution and 10 ng/ml of BDNF. The viable cells were counted in a Neubauer cytometer, using the trypan blue exclusion test. The cells were seeded in a density of 25000 per well in a 96-well plate pre-coated with poly-L-lysine and were cultured at 37° C. in a CO2 incubator (5%). The medium was changed every two days. The experiments were subsequently carried out on 96-well plates (n=6 culture wells per condition). In the 96 wells of each plate, only 60 were used. The wells in the first and last rows and columns were not used in order to avoid any edge effects and were filled with sterile water.
(§2) The compounds to be tested were dissolved in DMSO and the concentration was adjusted in order to ensure a concentration of DMSO in the culture medium of 0.1%. […]
(§3) For each condition, 30 images per well were automatically recorded using ImageXpress (Molecular Devices) at 20× magnification. […]
(§4) The data were expressed as a percentage of the control. […]

A further experiment deals with tau protein. Briefly: Hyperphosphorylation of tau protein (AT100) in cortical neurons damaged by glutamate. It counts as cell-based, Murine. As to conditions: % of the negative control (100%=value 0); glutamate 20 μM, 20 min; 48 hours after; SBE 1 μm, BDNF 50 ng/mL; FIG. 5. The method, then: as §1, §2, §3, §4

T1 sequence (P19111 20-506 limits assumed): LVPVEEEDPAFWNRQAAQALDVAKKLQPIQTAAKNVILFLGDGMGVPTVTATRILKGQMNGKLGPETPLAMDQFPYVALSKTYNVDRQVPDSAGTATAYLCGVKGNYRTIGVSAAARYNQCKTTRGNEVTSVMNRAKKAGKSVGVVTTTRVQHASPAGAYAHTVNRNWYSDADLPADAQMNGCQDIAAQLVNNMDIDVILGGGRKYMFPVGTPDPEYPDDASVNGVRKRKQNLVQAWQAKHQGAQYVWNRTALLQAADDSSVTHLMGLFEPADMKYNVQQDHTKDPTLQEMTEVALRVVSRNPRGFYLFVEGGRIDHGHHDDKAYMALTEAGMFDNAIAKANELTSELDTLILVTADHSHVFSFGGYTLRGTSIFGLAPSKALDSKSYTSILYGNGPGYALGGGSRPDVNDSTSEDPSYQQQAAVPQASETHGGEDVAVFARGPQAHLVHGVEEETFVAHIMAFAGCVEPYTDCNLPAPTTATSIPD

In the case of Diglycosylated bacterioruberin [BR-DiG], in experiment [1], the “percentage protection against heat (AP-heat test)” value is “protect the protein more effectively than the BR itself”. Also, the “percentage of protection against oxidative stress (APOX test)” value in experiment [2] was “particularly pronounced”.

For the molecule “Monoglycosylated bacterioruberin [BR-MonoG]”, the “percentage protection against heat (AP-heat test)” value in experiment [1] is “protect the protein more effectively than the BR itself”.

Consider `N[C@@H](CCC(=O)O)C(=O)O` [Glutamate, reference compound], for which the “reduction in neural network density” value with Murine cortical neurons (glutamate poisoning alone (20 μM, 20 min)/vehicle) is on record as 60%. Also, the “hyperphosphorylation of tau protein (AT100 zone, tau/MAP-2 overlap)” value in the experiment with tau protein was “+193%”.

B1: BDNF: neurotrophin used as a positive control (protein, UniProt P23560 19-247, looked up)
Neurotrophic factor BDNF …: APMKEANIRGQGGLAYPGVRTHGTLESVNGPKAGSRGLTSLADTFEHVIEELLDEDQKVRPNEENNKDADLYTSRVMLSSQVPLEPPLLFLLEEYKNYLDAANMSMRVRRHSDPARRGELSVCDSISEWVTAADKKTAVDMSGGTVTVLEKVPVSKGQLKQYFYETKCNPMGYTKEGCRGIDKRHWNSQCRTTQSYVRALTMDSKKRIGWRFIRIDTSCVCTLTIKRGR
On to B1, for which the “total neural network (MAP-2 positive neural length)” value with Murine cortical neurons (percentage of control, glutamate 20 μM, 20 min, 1 hour pre-incubation, SBE 1 μm, BDNF 50 ng/mL) is 85%. Moreover, the “hyperphosphorylation of tau protein (AT100 zone, tau/MAP-2 overlap)” value in the experiment on tau protein is “+121%”.
